Tested on: MDA (lipid peroxidation) in blood
Experiment: MDA rat model assay (blood MDA, aged rats)
Type: in vivo, wistar rats
Experimental: A total of forty 3.5 year old wistar rats were divided into four groups, each containing 10 rats. Groups A, B, C and VE were treated with the activated yeast composition, the control yeast composition, saline and Vitamin E, respectively. Eight 8 month old wistar rats were also selected for group D, which were used as a junior control group.
Groups A, B and VE were administered daily 3 ml/kg (body weight) of the activated yeast composition, 3 ml/kg of the control yeast composition and 0.25 mg/kg of Vitamin E, respectively. Groups C and D were both treated with 3 ml/kg of saline daily. After three months of treatment, blood samples were taken from the heart of the rats and placed in a test tube with heparin. The test tube was then incubated at 37° C. for 10 minutes and centrifuged at 2500 rpm for 10 minutes. 4 ml of sulfuric acid and 0.5 ml of phosphotungstic acid were added to the serum and left at room temperature for 5 minutes after mixing. The mixture was then centrifuged at 3000 rpm for 10 minutes. 2 ml of sulfuric acid and 0.3 ml of phosphotungstic acid were added to the precipitate. Finally, the mixture was used to determine the MDA concentration as described previously.

With `Cc1c(C)c2c(c(C)c1O)CC[C@@](C)(CCC[C@H](C)CCC[C@H](C)CCCC(C)C)O2` [VE, Vitamin E] the “MDA” value (3.5 year old rats, blood from heart after three months of daily treatment, yeast compositions 3 ml/kg, Vitamin E 0.25 mg/kg) was 4.36 ± 0.78 µM and the “lipid peroxidation compared to control yeast composition or saline” value (aged rats, three months, in words) was “reduced lipid peroxidation”.
